In patent publication US20220249680A1, “ANTIBODY-ALK5 INHIBITOR CONJUGATES AND THEIR USES” (Synthis Therapeutics, Inc., priority 2019, published 2022):

What was measured:
[1] = test system: primary mouse CD4+ T cells; test: MTS proliferation assay, TGF-β1 treated primary mouse CD4+ T cells; assay type: cell-based
Method: Compounds A-D were tested to determine whether they could inhibit TGF-β signaling in primary mouse CD4^+ T cells.
Primary mouse CD4^+ T cells were isolated from the spleens of C57/B6 mice using the RoboSep™ cell isolation system (Stemcell Technologies). 0.5 μg/ml of hamster anti-mouse CD3e antibody (145-2C11; eBioscience) was coated onto a 96 well flat bottom plate overnight. 1×10^5 purified CD4^+ T cells were incubated with 1 μg/ml soluble hamster anti-mouse CD28 antibody (37.51, BD Biosciences), 1 nM TGF-β1 and 8-fold serial dilutions of Compounds A-D. After 72 hours, cell proliferation was measured using an MTS assay (Promega) in accordance with the manufacturer's instructions.

ALK5 = biological target: T1, ALK5 (Homo sapiens, UniProt P36897); test: recombinant kinase assays (IC50 and Ki); assay type: biochemical; settings: Compound C versus Compound N
T1 sequence (P36897 34-503): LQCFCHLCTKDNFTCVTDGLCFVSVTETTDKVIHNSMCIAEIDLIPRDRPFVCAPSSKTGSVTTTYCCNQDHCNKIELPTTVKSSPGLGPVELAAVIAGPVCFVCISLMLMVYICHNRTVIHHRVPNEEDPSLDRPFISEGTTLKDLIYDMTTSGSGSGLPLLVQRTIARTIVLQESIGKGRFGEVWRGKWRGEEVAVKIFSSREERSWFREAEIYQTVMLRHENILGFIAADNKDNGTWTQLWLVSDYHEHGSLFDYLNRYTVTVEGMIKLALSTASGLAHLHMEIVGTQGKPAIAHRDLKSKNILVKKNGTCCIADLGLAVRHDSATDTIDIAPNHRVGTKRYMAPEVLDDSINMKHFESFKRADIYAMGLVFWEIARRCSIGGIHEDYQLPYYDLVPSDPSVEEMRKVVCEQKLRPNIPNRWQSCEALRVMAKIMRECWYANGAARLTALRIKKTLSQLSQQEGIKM
Source text: Compound N was compared to Compound C in a number of in vitro assays.

[2] = test system: CMV responsive human PBMCs; test: Cytokine secretion assay (IFN-γ) with CMV antigens; assay type: cell-based; settings: 1 nM TGF-β, 1 ng/ml each agent, 48 hours
Method: In a 96-well round bottom plate, 1.5×10^5 CMV responsive human PBMCs (Astarte Biologics) were cultured with 1.5 μg/ml CMV antigens (Astarte Biologics) in serum free medium for 48 hours alone or in the presence of (i) 1 nM TGF-β, (ii) 1 nM TGF-β and T3A #5 at 1 ng/ml, (iii) 1 nM TGF-β and pembrolizumab at 1 ng/ml, (iv) 1 nM TGF-β, T3A #5 at 1 ng/ml, and pembrolizumab at 1 ng/ml, or (v) 1 nM TGF-β and isotype control antibody (negative control). IFN-γ levels were measured in the supernatants using a R&D ELISA kit.

Compound	Experiment 1 IC50 (nM) ([1]; 1 nM TGF-β1, 72 hours)	reversal of TGFβ-mediated inhibition of T cell proliferation ([1]; in words)	other results
Cc1cccc(-c2nc(N)sc2-c2ccc3ncccc3n2)n1 [Compound A, 4-(6-methylpyridin-2-yl)-5-(1,5-naphthyridin-2-yl)-1,3-thiazol-2-amine]	Value not obtained	did not show consistent effects	
CNCCOc1ccc(-c2cc(-c3c[nH]nc3-c3ccccn3)ccn2)cc1 [Compound B, N-methyl-2-(4-{4-[3-(pyridin-2-yl)-1H-pyrazol-4-yl]pyridin-2-yl}phenoxy)ethan-1-amine]		reversed TGFβ-mediated inhibition of T cell proliferation	
CNCCOc1ccc(-c2cc(-c3c[nH]nc3-c3cccc(C)n3)ccn2)cc1 [Compound C, N-methyl-2-(4-{4-[3-(6-methylpyridin-2-yl)-1H-pyrazol-4-yl]pyridin-2-yl}phenoxy)ethan-1-amine]		reversed TGFβ-mediated inhibition of T cell proliferation	potency relative to Compound N in the recombinant assays (ALK5): 10 fold
CCNC(=O)c1ccc2c(c1)NC(=O)/C2=C(\Nc1ccc(N(CCNC)S(C)(=O)=O)cc1)c1ccccc1 [Compound D, (Z)-N-ethyl-3-(((4-(N-(2-(methylamino)ethyl)methylsulfonamido)phenyl)amino)(phenyl)methylene)-2-oxoindoline-6-carboxamide]	Value not obtained		Experiment 2 IC50 (nM) ([1]; Experiment 2, 1 nM TGF-β1, 72 hours): Value not obtained; IC50 value in mouse CD4+ T cells ([1]; two different experiments, in words): not obtained
pembrolizumab: T cell checkpoint inhibitor (anti-PD1, Merck)			IFN-γ levels [2]: increase IFN-γ levels
